System: rats in which OA was induced
Assay: Intra-articular injection in rats with surgically induced (ACLT + MM) degenerative arthritis; histology, immunohistochemistry, OARSI and Mankin scoring
Format: in vivo, Sprague Dawley rats
Conditions: IA injection twice at 7th and 10th week after surgery, sacrificed 8th week after first injection
Procedure: Animal experiments were performed with the approval of the animal experiment ethics committee by using 9-week old male Sprague Dawley rats (Orient Inc., Seoul, Korea). Degenerative arthritis (osteoarthritis; OA) was induced by performing anterior cruciate ligament transection (ACLT) and medial meniscectomy (MM) on the rats, and the rats were allowed to exercise on a treadmill for 20 minutes every day from two weeks after the surgery.
In the Examples of the present invention, technical statistics were used in order to determine the group average and standard deviation. […]
The rats were sacrificed at 8th week after the first IA injection, the knee joints were dissected and fixed with 10% paraformaldehyde (at 4° C. for 1 day), and then calcareous materials were removed with a Lite decalcifying solution (Sigma-Aldrich), and after the resulting knee joints were embedded in a Tissue-Tek OCT compound (Sakura Finetek, Torrance, Calif., USA) or paraffin wax, and then the paraffin wax fragment was stained with Safranin-O (4% w/v) and Fast Green (0.1% w/w). The degenerative state was evaluated by using an Osteoarthritis Research Society International (OARSI) cartilage Histopathology Assessment System and a Mankin evaluation system, and the fragments were analyzed through immunohistochemistry for COL2 and aggrecan. […]

SMILES: O=C(O)c1ccccc1C(=O)Nc1ccc(-c2ccccc2)cc1 [KGN, kartogenin]
- cartilage histology (Safranin-O staining): loss of cartilage due to matrix vertical cracks and surface layer exfoliation
